Test results published in ChEMBL document CHEMBL1201862, “PubChem BioAssay data set” (2004).
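Grown in 96-well plates, cells were treated for 48 hours with each compound at five concentrations. Insufficient inhibition: endpoint recorded as highest concentration tested. GI50 is the concentration that inhibits growth by half.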 Activity calls are given as the source filed them. No stated cut-off is given here; in the data, active = GI50 up to about 1.1 µM and inactive = higher.

Tests used:
Test in all cases: NCI tumour cell line growth inhibition, 48 h
[1] = system: BT-549
[2] = system: DU-145
[3] = system: HOP-18
[4] = system: HOP-92
[5] = system: HT-29
[6] = system: Hs-578T
[7] = system: MCF7
[8] = system: MDA-MB-231
[9] = system: MDA-N
[10] = system: Malme-3M
[11] = system: NCI/ADR-RES
[12] = system: OVCAR-5
[13] = system: PC-3
[14] = system: RPMI-8226
[15] = system: RXF 393
[16] = system: SF-295
[17] = system: SF-539
[18] = system: SK-MEL-28
[19] = system: SNB-78
[20] = system: T47D

Measured: GI50

O=C1/C(=C/c2ccccc2)CCC/C1=C\c1ccccc1 [2,6-DIBENZYLIDENECYCLOHEXANONE]
inactive: [1] 5.81 µM | [2] 6.97 µM | [3] 19.5 µM | [4] 17.5 µM | [5] 5.87 µM | [6] 8.2 µM | [7] 1.74 µM | [8] 6.07 µM | [9] 2.79 µM | [10] 16.5 µM | [11] 8.77 µM | [12] 17.3 µM | [13] 5.89 µM | [14] 1.6 µM | [15] 17.8 µM | [16] 10.4 µM | [17] 16.6 µM | [18] 16.6 µM | [19] 17.5 µM | [20] 6.4 µM
